“Also recorded” adds a separate entry of the source. Read-outs that look alike come from different tables or passages of the source. Where only a bound is given, the exact number is not on record here.

Common to all, as to format: biochemical
Experiment [1] has as its target T1, BACE1 (Homo sapiens, UniProt P56817).
T1 construct: purchased RD System, Inc. (WI, USA)
The experiment is described as follows: BACE1 FRET peptide cleavage assay. Conditions: for Inhibition type: Lineweaver-Burk and Dixon plots. How it is done:
In this assay, BACE1-catalyzed proteolysis of a synthetic oligopeptide substituted with a fluorescent dye and a quencher leads to an increase in fluorescence by breaking the tether between the dye and the quencher. […] The assay was carried out according to the supplied manual with small modifications.
The assay was carried out according to the supplied manual with modifications. Briefly, a mixture of 10 μL of assay buffer (50 mM sodium acetate, pH 4.5), 10 μL of BACE1 (1.0 U/mL), 10 μL of the substrate (750 nM Rh-[…]-Quencher in 50 mM sodium acetate, pH 4.5), and 10 μL of sample dissolved in 50 mM ammonium bicarbonate buffer (pH 7.8) was incubated for 60 min at room temperature in the dark. The mixture was irradiated at 545 nm and the emission intensity at 590 nm was recorded. The inhibition ratio was obtained by the following equation: Inhibition (%) = [1 − {(S−S0)/(C−C0)}] × 100 where C was the fluorescence of the control (enzyme, buffer, and substrate) after 60 min of incubation, C0 was the fluorescence of control at zero time, S was the fluorescence of the tested samples (enzyme, sample solution, and substrate) after incubation, and S0 was the fluorescence of the tested samples at zero time. To allow for the quenching effect of the samples, the sample solution was added to the reaction mixture C, and any reduction in fluorescence by the sample was then investigated. All data are the mean of three experiments.

For experiment [2], the target named is T2, human erythrocyte AChE (Homo sapiens, UniProt P22303).
T2 construct: 2 μL of human erythrocyte AChE (0.25 U/mL); from tissue; host or cells: human erythrocytes
T2 sequence (P22303 other isoform, or with tags, fused parts or gaps): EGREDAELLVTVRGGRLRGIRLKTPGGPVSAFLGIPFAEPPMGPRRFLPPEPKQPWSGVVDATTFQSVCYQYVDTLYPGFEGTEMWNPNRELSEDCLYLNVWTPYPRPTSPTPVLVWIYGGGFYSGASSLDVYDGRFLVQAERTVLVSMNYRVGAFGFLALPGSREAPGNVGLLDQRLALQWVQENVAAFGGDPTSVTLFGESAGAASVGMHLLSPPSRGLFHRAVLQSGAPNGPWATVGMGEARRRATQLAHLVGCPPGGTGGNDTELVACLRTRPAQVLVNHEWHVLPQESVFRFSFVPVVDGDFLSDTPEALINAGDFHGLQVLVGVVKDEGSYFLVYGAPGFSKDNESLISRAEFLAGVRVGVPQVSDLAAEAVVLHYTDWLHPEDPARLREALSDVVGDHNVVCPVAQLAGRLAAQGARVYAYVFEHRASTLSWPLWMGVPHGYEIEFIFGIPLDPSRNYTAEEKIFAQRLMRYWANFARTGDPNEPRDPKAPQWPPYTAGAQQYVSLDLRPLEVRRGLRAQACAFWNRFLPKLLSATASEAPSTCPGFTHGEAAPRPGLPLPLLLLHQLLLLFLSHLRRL
Description: Cholinesterase inhibitory activity (Ellman), AChE. Conditions: for IC50: read-out: IC50 erythrocytes AChE; for Ki: read-out: Ki (inhibition constant) AChE. As to the method:
(§1) Cholinesterase was assayed according to standard procedures by following the hydrolysis of acetylthiocholine iodide (AtCh) or butyrylthiocholine iodide (BtCh) by monitoring formation of 5-thio-2-nitrobenzoate from 5-5'-dithiobis(2-nitrobenzoic acid) spectrometrically at 412 nm. The reaction mixture contained 100 mM sodium phosphate buffer (pH 8.0), 20 μL of test sample solution and either 2 μL of human erythrocyte AChE (0.25 U/mL) or 2 μL of equine serum BChE (0.05 U/mL) solution, which were mixed and incubated for 10 min at room temperature. Assays were then initiated with the addition of 30 μL 5-5'-dithiobis(2-nitrobenzoic acid) (3.3 mM) and, respectively, 20 μL of AtCh (1 mM), and 7 μL of BtCh (1 mM). All assays were performed in triplicate. […] Kinetic parameters were determined using the Lineweaver-Burk double-reciprocal-plot method at increasing concentration of substrates and inhibitors.
Background: Ellman's reagent forms a yellow product with free thiols.

Experiment [3] concerns the target T3, equine serum BChE (Equus caballus, UniProt P81908).
T3 construct: 2 μL of equine serum BChE (0.05 U/mL) solution; from tissue; host or cells: equine serum
The experiment is described as follows: Cholinesterase inhibitory activity (Ellman), BChE. Conditions: for Ki: read-out: Ki (inhibition constant) BChE. As to the method:
as §1

The target of experiment [4] is T1, BACE1. The experiment is described as follows: Slow and time-dependent inhibitory activity on BACE1 (progress curves). The conditions noted are these: preincubation 0-60 min, progress curves 3,600 s. As to the method:
To further investigate the inhibition mechanism, time dependence of BACE1inhibition by compound 5a was subsequently probed. The enzyme was preincubated with […] (between 0 and 60 min) and the residual enzyme activity was measured by calculating the initial velocity (Vi) of the hydrolysis (Figure 3B). Progress curves were continued to be run up for 3,600 s.
Slow and time-dependent assays and progress curves were carried out using 1 U/mL unit BACE1, and 10 μL substrate in 50 mM ammonium bicarbonate pH 7.8 at 37 °C. Enzyme activities were measured continuously for 3,600 s spectrophotometrically. To determine the kinetic parameters associated with time dependent inhibition of BACE1, progress curves for 3,600 s were obtained at one inhibitor concentration using fixed substrate concentrations. The data were analyzed using the nonlinear regression program [Sigma Plot (SPCC Inc., Chicago, IL, USA)].

The mark [5] stands for this setting: BACE1, Dixon plot, read-out: Ki (inhibition constant).
The mark [6] stands for this setting: BACE1 activity, mean of three experiments ± SD.

T3 sequence (P81908 whole entry): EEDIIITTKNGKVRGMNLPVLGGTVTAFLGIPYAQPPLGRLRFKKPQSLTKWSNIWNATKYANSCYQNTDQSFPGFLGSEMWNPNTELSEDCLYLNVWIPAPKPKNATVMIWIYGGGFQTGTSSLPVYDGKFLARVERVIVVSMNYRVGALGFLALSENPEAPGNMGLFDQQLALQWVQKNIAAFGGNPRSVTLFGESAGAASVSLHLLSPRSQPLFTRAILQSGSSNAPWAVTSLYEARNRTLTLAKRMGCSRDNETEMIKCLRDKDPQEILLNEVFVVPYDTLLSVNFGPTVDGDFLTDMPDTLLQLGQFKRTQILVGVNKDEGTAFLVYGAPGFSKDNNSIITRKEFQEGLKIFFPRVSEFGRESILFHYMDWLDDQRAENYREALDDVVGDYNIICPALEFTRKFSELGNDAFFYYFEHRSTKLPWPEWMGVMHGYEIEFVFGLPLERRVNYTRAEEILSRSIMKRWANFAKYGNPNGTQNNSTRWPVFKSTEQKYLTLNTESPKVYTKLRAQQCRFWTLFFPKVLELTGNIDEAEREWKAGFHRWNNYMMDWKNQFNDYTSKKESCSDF
T1 sequence (P56817 46-501): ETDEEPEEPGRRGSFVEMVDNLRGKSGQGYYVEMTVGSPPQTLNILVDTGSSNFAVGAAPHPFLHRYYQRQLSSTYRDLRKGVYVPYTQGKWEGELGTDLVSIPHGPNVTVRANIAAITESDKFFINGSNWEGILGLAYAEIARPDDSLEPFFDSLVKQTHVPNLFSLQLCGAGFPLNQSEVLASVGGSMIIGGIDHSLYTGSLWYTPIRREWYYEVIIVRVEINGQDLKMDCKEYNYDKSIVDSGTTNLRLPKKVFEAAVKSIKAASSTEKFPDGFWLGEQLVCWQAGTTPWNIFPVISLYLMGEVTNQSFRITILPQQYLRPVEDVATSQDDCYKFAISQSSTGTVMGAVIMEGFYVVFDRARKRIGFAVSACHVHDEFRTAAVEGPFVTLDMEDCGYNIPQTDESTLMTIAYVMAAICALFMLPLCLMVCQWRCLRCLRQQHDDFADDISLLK

As a reminder, the Ki is the equilibrium dissociation constant of an inhibitor or competing ligand from its target. Usually IC50 stands for the concentration needed to halve the response being measured. Turning to `Nc1ccc(C(=O)/C=C/c2ccc(O)cc2)cc1` [Compound 1, 4′-Amino-4-hydroxychalcone], the Ki in experiment [1] (setting [5]) came to 43.8 µM. In experiment [1] (setting [6]), this molecule displayed an IC50 of 48.2 ± 1.2 µM.

Take `Nc1ccc(C(=O)/C=C/c2ccc(O)c(O)c2)cc1` [Compound 2, 4′-Amino-3,4-dihydroxychalcone]: the Ki in experiment [1] (setting [5]) is 10.5 µM. The molecule further had an IC50 in experiment [1] (setting [6]) of 17.7 ± 0.8 µM.

`CC(=O)Nc1ccc(C(=O)/C=C/c2ccc(O)cc2)cc1` [Compound 3, 4′-Acetamido-4-hydroxychalcone] yielded an IC50 in experiment [1] (setting [6]) above 200 µM. Moreover, the “BACE1 inhibition” value in experiment [1] (at concentrations as high as 200 μM) was “inactive”.

In the case of `Cc1ccc(S(=O)(=O)Nc2ccc(C(=O)/C=C/c3ccc(O)cc3)cc2)cc1` [Compound 4a, 4'-(4-Toluenesulfonamide)-4-hydroxychalcone], the Ki was 0.56 µM in experiment [1] (setting [5]), 40.4 µM in experiment [2] and 25.3 µM in experiment [3]. Further, the Inhibition type entry in experiment [1] (BACE1) is recorded as “mixed type”. Moreover, the IC50 in experiment [1] (setting [6]) is 1.44 ± 0.2 µM; in experiment [2], 56.1 µM; in experiment [3] it was 47.4 µM.

For `Cc1ccc(S(=O)(=O)Nc2ccc(C(=O)/C=C/c3ccccc3)cc2)cc1` [Compound 4b, 4′-(4-Toluenesulfonamido)-chalcone], the IC50 in experiment [1] (setting [6]) was 169 ± 2.4 µM.

Regarding `O=C(/C=C/c1ccc(O)cc1)c1ccc(NS(=O)(=O)c2ccccc2)cc1` [Compound 4c, 4′-(Benzenesulfonamide)-4-hydroxychalcone], the Ki in experiment [1] (setting [5]) was found to be 5.83 µM; in experiment [2], 80.3 µM; in experiment [3], 72.2 µM. The IC50 in experiment [1] (setting [6]) amounted to 6.28 ± 0.7 µM; in experiment [2], 83.3 µM; in experiment [3], 75 µM.

Turning to `O=C(/C=C/c1ccc(O)cc1)c1ccc(NS(=O)(=O)c2ccc(O)cc2)cc1` [Compound 4d, 4′-(4-Hydroxybenzenesulfonamide)-4-hydroxychalcone], in experiment [1] (setting [5]), the Ki was 1.49 µM. Moreover, the IC50 in experiment [1] (setting [6]) came out at 2.88 ± 0.5 µM.

For the molecule `COc1ccc(S(=O)(=O)Nc2ccc(C(=O)/C=C/c3ccc(O)cc3)cc2)cc1` [Compound 4e, 4′-(4-Methoxybenzenesulfonamido)-4-hydroxychalcone], the Ki in experiment [1] (setting [5]) was determined as 75.2 µM. In experiment [1] (setting [6]), this molecule returned an IC50 of 79.3 ± 2.3 µM.

With `Nc1ccc(S(=O)(=O)Nc2ccc(C(=O)/C=C/c3ccc(O)cc3)cc2)cc1` [Compound 4f, 4′-(4-Aminobenzenesulfonamide)-4-hydroxychalcone], the Ki was determined as 4.19 µM in experiment [1] (setting [5]), 61.5 µM in experiment [2] and 19 µM in experiment [3]. Also, the IC50 in experiment [1] (setting [6]) stood at 5.58 ± 1.4 µM; in experiment [2], 95.8 µM; in experiment [3] it was 34.3 µM.

On to `O=C(/C=C/c1ccc(O)cc1)c1ccc(NS(=O)(=O)c2ccc([N+](=O)[O-])cc2)cc1` [Compound 4g, 4′-(4-Nitrobenzenesulfonamide)-4-hydroxychalcone], for which the inhibitory constant (Ki) in experiment [1] (setting [5]) is 94.8 µM. For the same molecule, in experiment [1] (setting [6]), the IC50 is 107 ± 2.7 µM.

In the case of `O=C(/C=C/c1ccc(O)cc1)c1ccc(NS(=O)(=O)c2ccc(F)cc2)cc1` [Compound 4h, 4′-(4-Fluorobenzenesulfonamide)-4-hydroxychalcone], the IC50 in experiment [1] (setting [6]) amounted to 120 ± 3.2 µM.

In the case of `Cc1ccc(S(=O)(=O)Nc2ccc(C(=O)/C=C/c3ccc(O)c(O)c3)cc2)cc1` [Compound 5a, 4'-(4-Toluenesulfonamide)-3,4-dihydroxychalcone], the “Time dependence of inhibition” value in experiment [4] was “slow binding inhibitor; also recorded: time-dependent”. In addition, the Inhibition type entry in experiment [1] (BACE1) was “mixed inhibitor”. Moreover, the inhibition constant Ki in experiment [1] (BACE1, read-out: Ki) was 0.07 µM; in experiment [2], 55.8 µM; in experiment [3], 9.8 µM. For the same molecule, in experiment [1] (BACE1, residual activity versus enzyme concentration), the Reversibility of inhibition entry is recorded as “reversible inhibitor”. Also, the IC50 in experiment [1] (setting [6]) turned out to be 0.21 ± 0.02 µM; in experiment [2], 75.9 µM; in experiment [3] it was 19.5 µM.

`O=C(/C=C/c1ccc(O)c(O)c1)c1ccc(NS(=O)(=O)c2ccccc2)cc1` [Compound 5b, 4′-(Benzenesulfonamide)-3,4-dihydroxychalcone]: the Ki stood at 3.78 µM in experiment [1] (setting [5]), 57.2 µM in experiment [2] and 63.5 µM in experiment [3]. The IC50 worked out at 4.59 ± 1.5 µM in experiment [1] (setting [6]), 75.4 µM in experiment [2] and 79 µM in experiment [3].

In the case of `O=C(/C=C/c1ccc(O)c(O)c1)c1ccc(NS(=O)(=O)c2ccc(O)cc2)cc1` [Compound 5c, 4′-(4-Hydroxybenzenesulfonamide)-3,4-hydroxychalcone], the Ki was 0.56 µM in experiment [1] (setting [5]), 47.6 µM in experiment [2] and 26.6 µM in experiment [3]. Further, the IC50 was found to be 0.62 ± 0.03 µM in experiment [1] (setting [6]), 57.4 µM in experiment [2] and 24.7 µM in experiment [3].

For `Nc1ccc(S(=O)(=O)Nc2ccc(C(=O)/C=C/c3ccc(O)c(O)c3)cc2)cc1` [Compound 5d, 4′-(4-Aminobenzenesulfonamide)-3,4-dihydroxychalcone], the Ki in experiment [1] (setting [5]) is 0.69 µM. Further, half-maximal inhibition in experiment [1] (setting [6]) (IC50) was put at 0.69 ± 0.04 µM.

`O=C(/C=C/c1ccc(O)c(O)c1)c1ccc(NS(=O)(=O)c2ccc([N+](=O)[O-])cc2)cc1` [Compound 5e, 4′-(4-Nitrobenzenesulfonamide)-3,4-dihydroxychalcone]: the Ki in experiment [1] (setting [5]) is 92.4 µM. In addition, the IC50 in experiment [1] (setting [6]) was 101 ± 2.4 µM.

With `O=C(/C=C/c1ccc(O)c(O)c1)c1ccc(NS(=O)(=O)c2ccc(F)cc2)cc1` [Compound 5f, 4′-(4-Fluorobenzenesulfonamide)-3,4-dihydroxychalcone], the inhibitory constant (Ki) in experiment [1] (setting [5]) was determined as 10.8 µM. The concentration for half-maximal inhibition (IC50) in experiment [1] (setting [6]) stood at 8.95 ± 1 µM.

With `Cc1ccc(S(=O)(=O)Nc2ccc(C(=O)/C=C/c3ccc(O)cc3O)cc2)cc1` [Compound 6, 4'-(4-Toluenesulfonamide)-2,4-dihydroxychalcone], the Ki in experiment [1] (setting [5]) came out at 1.89 µM. Half-maximal inhibition in experiment [1] (setting [6]) (IC50) was put at 3.6 ± 0.3 µM.

In turn, `O=c1c(O)c(-c2ccc(O)cc2O)oc2cc(O)cc(O)c12` [Morin, reference compound] had an IC50 in experiment [1] (BACE1) of 12.3 µM.
